Test: xn = mol fraction of the nth substance listed

CCCCN(CCCC)CCCC + CC(C)O
viscosity [mPa·s], 101.33 kPa
Conditions | 298.15 K | 303.15 K | 308.15 K | 313.15 K | 318.15 K | 323.15 K
x1 = 0.0562 | 1.977 | – | 1.524 | – | 1.172 | –
x1 = 0.1016 | – | 1.679 | – | 1.292 | – | 1.009
x1 = 0.1175 | 1.876 | – | 1.46 | – | 1.132 | –
x1 = 0.1477 | – | 1.619 | – | 1.256 | – | 0.988
x1 = 0.1499 | 1.827 | – | 1.429 | – | 1.113 | –
x1 = 0.1897 | 1.772 | – | 1.394 | – | 1.092 | –
x1 = 0.1953 | – | 1.562 | – | 1.223 | – | 0.968
x1 = 0.224 | 1.728 | – | 1.367 | – | 1.075 | –
x1 = 0.2585 | – | 1.496 | – | 1.185 | – | 0.945
x1 = 0.2648 | 1.681 | – | 1.338 | – | 1.057 | –
x1 = 0.3035 | 1.641 | – | 1.313 | – | 1.041 | –
x1 = 0.3076 | – | 1.452 | – | 1.16 | – | 0.93
x1 = 0.3493 | 1.6 | – | 1.287 | – | 1.024 | –
x1 = 0.3539 | – | 1.415 | – | 1.139 | – | 0.918
x1 = 0.404 | 1.559 | – | 1.26 | – | 1.007 | –
x1 = 0.4061 | – | 1.379 | – | 1.118 | – | 0.906
x1 = 0.4528 | 1.528 | 1.351 | 1.24 | 1.101 | 0.994 | 0.898
x1 = 0.4899 | 1.508 | – | 1.226 | – | 0.985 | –
x1 = 0.5047 | – | 1.324 | – | 1.086 | – | 0.889
x1 = 0.5476 | – | 1.304 | – | 1.073 | – | 0.884
x1 = 0.5541 | 1.479 | – | 1.206 | – | 0.972 | –
x1 = 0.604 | 1.46 | – | 1.192 | – | 0.962 | –
x1 = 0.611 | – | 1.278 | – | 1.059 | – | 0.876
x1 = 0.6925 | 1.434 | – | 1.172 | – | 0.948 | –
x1 = 0.7023 | – | 1.247 | – | 1.042 | – | 0.866
x1 = 0.7872 | – | 1.221 | – | 1.027 | – | 0.859
x1 = 0.8457 | 1.399 | – | 1.145 | – | 0.927 | –
x1 = 0.9375 | – | 1.181 | – | 1.004 | – | 0.848
x1 = 0.9696 | – | 1.173 | – | 0.999 | – | 0.847

CCCCN(CCCC)CCCC + CCCO
viscosity [mPa·s]
Conditions | 298.15 K | 303.15 K | 308.15 K | 313.15 K | 318.15 K | 323.15 K
101.3 kPa, x1 = 0.0929 | – | 1.75 | – | 1.364 | – | –
101.3 kPa, x1 = 0.1877 | – | 1.712 | – | 1.328 | – | –
101.3 kPa, x1 = 0.2897 | – | – | – | 1.289 | – | –
101.3 kPa, x1 = 0.3991 | – | 1.605 | – | 1.245 | – | –
101.3 kPa, x1 = 0.5176 | – | 1.529 | – | – | – | –
101.3 kPa, x1 = 0.616 | – | 1.462 | – | – | – | –
101.3 kPa, x1 = 0.7064 | – | 1.392 | – | – | – | –
101.3 kPa, x1 = 0.8055 | – | 1.307 | – | – | – | –
101.3 kPa, x1 = 0.8864 | – | 1.252 | – | – | – | –
101.33 kPa, x1 = 0.0994 | – | – | – | 1.412 | – | 1.318
101.33 kPa, x1 = 0.1089 | 1.974 | – | 1.622 | – | 1.465 | –
101.33 kPa, x1 = 0.1447 | – | 1.7 | – | 1.398 | – | 1.343
101.33 kPa, x1 = 0.1916 | – | – | – | 1.375 | – | 1.342
101.33 kPa, x1 = 0.2045 | 1.895 | – | 1.558 | – | 1.436 | –
101.33 kPa, x1 = 0.2539 | 1.845 | 1.603 | 1.519 | 1.34 | 1.403 | 1.315
101.33 kPa, x1 = 0.3026 | 1.795 | 1.558 | 1.481 | 1.308 | 1.366 | 1.283
101.33 kPa, x1 = 0.3485 | – | 1.517 | – | 1.277 | – | 1.247
101.33 kPa, x1 = 0.3584 | 1.739 | – | 1.437 | – | 1.32 | –
101.33 kPa, x1 = 0.4003 | 1.7 | 1.473 | 1.407 | 1.244 | 1.286 | 1.206
101.33 kPa, x1 = 0.4469 | 1.66 | 1.436 | 1.375 | 1.216 | 1.249 | 1.17
101.33 kPa, x1 = 0.4987 | 1.619 | 1.4 | 1.342 | 1.187 | 1.211 | 1.133
101.33 kPa, x1 = 0.5417 | – | 1.372 | – | 1.165 | – | 1.104
101.33 kPa, x1 = 0.5569 | 1.58 | – | 1.309 | – | 1.171 | –
101.33 kPa, x1 = 0.6053 | 1.551 | 1.335 | 1.284 | 1.136 | 1.14 | 1.065
101.33 kPa, x1 = 0.6587 | 1.523 | – | 1.259 | – | 1.108 | –
101.33 kPa, x1 = 0.6973 | 1.504 | 1.289 | 1.242 | 1.098 | 1.085 | 1.012
101.33 kPa, x1 = 0.7606 | 1.474 | – | 1.216 | – | 1.047 | –
101.33 kPa, x1 = 0.7832 | – | 1.251 | – | 1.066 | – | 0.962
101.33 kPa, x1 = 0.8067 | 1.454 | – | 1.197 | – | 1.02 | –
101.33 kPa, x1 = 0.9104 | 1.409 | – | 1.156 | – | 0.959 | –
101.33 kPa, x1 = 0.9361 | – | 1.189 | – | 1.013 | – | 0.873
101.33 kPa, x1 = 0.9688 | – | 1.177 | – | 1.004 | – | 0.858

Reference: the CheMixHub viscosity set
